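Exposure lasted 48 hours, with cells grown in 96-well plates and compounds tested at five concentrations. At the GI50, growth is halved.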 Active and inactive are the calls of the source. No stated cut-off is given here; in the data, active = GI50 up to about 1.1 µM and inactive = higher.
Experiments:
Assay in all cases: growth of human tumour cells (NCI), 48 h
PC-3 = test system: PC-3
SF-268 = test system: SF-268
SK-MEL-28 = test system: SK-MEL-28
OVCAR-4 = test system: OVCAR-4
SK-MEL-2 = test system: SK-MEL-2
NCI/ADR-RES = test system: NCI/ADR-RES
M14 = test system: M14
COLO 205 = test system: COLO 205
MDA-MB-435 = test system: MDA-MB-435
UACC-257 = test system: UACC-257
RPMI-8226 = test system: RPMI-8226
UO-31 = test system: UO-31
HOP-92 = test system: HOP-92
HCT-15 = test system: HCT-15
DU-145 = test system: DU-145
SN12C = test system: SN12C
A498 = test system: A498
MCF7 = test system: MCF7
SK-OV-3 = test system: SK-OV-3
SNB-75 = test system: SNB-75

Row | SMILES | GI50 (PC-3) | GI50 (SF-268) | GI50 (SK-MEL-28) | GI50 (OVCAR-4) | GI50 (SK-MEL-2) | GI50 (NCI/ADR-RES) | GI50 (M14) | GI50 (COLO 205) | GI50 (MDA-MB-435) | GI50 (UACC-257) | GI50 (RPMI-8226) | GI50 (UO-31) | GI50 (HOP-92) | GI50 (HCT-15) [µM] | GI50 (DU-145) | GI50 (SN12C) | GI50 (A498) | GI50 (MCF7) | GI50 (SK-OV-3) | GI50 (SNB-75)
1 | NC(=O)Nc1ccc(S(=O)(=O)Nc2ccc(S(N)(=O)=O)cc2)cc1 | > 100 µM (inactive) | 0.649 µM (active) | > 100 µM (inactive) | > 100 µM (inactive) | > 100 µM (inactive) | > 100 µM (inactive) | > 100 µM (inactive) | > 100 µM (inactive) | > 100 µM (inactive) | > 100 µM (inactive) | > 100 µM (inactive) | > 100 µM (inactive) | 37.2 µM (inactive) | > 100 | > 100 µM (inactive) | > 100 µM (inactive) | > 100 µM (inactive) | > 100 µM (inactive) | – | –
2 | CCNc1nc2ccccc2nc1NCC | > 100 µM (inactive) | > 100 µM (inactive) | > 100 µM (inactive) | – | > 100 µM (inactive) | > 100 µM (inactive) | > 100 µM (inactive) | > 100 µM (inactive) | > 100 µM (inactive) | > 100 µM (inactive) | > 100 µM (inactive) | > 100 µM (inactive) | – | > 100 | > 100 µM (inactive) | > 100 µM (inactive) | > 100 µM (inactive) | > 100 µM (inactive) | > 100 µM (inactive) | > 100 µM (inactive)
3 | Cc1nc2ccc(Cl)cc2c(-n2ccnc2)c1CCn1ccnc1 | 22.1 µM (inactive) | 30.2 µM (inactive) | 29.9 µM (inactive) | 18.9 µM (inactive) | 19.2 µM (inactive) | 2.03 µM (inactive) | 27.8 µM (inactive) | 18 µM (inactive) | 32.1 µM (inactive) | 18.8 µM (inactive) | – | 14.5 µM (inactive) | 15.9 µM (inactive) | 22.7 | 31.9 µM (inactive) | 34 µM (inactive) | 21.5 µM (inactive) | 32.3 µM (inactive) | 31 µM (inactive) | 20 µM (inactive)
4 | COC(=O)C1Cc2ccc(C)cc2C1=O (stereo unspecified) | > 100 µM (inactive) | > 100 µM (inactive) | > 100 µM (inactive) | > 100 µM (inactive) | > 100 µM (inactive) | > 100 µM (inactive) | > 100 µM (inactive) | > 100 µM (inactive) | > 100 µM (inactive) | > 100 µM (inactive) | > 100 µM (inactive) | > 100 µM (inactive) | – | > 100 | > 100 µM (inactive) | > 100 µM (inactive) | > 100 µM (inactive) | > 100 µM (inactive) | > 100 µM (inactive) | > 100 µM (inactive)
5 | CN1CCCC(OC(=O)c2cc3cc(CCl)ccc3oc2=O)C1 (stereo unspecified) | 18.3 µM (inactive) | 21.7 µM (inactive) | 19.5 µM (inactive) | 20.3 µM (inactive) | 17.6 µM (inactive) | 27.9 µM (inactive) | 14.8 µM (inactive) | 17.2 µM (inactive) | 18.9 µM (inactive) | 18.1 µM (inactive) | 29.4 µM (inactive) | 15.8 µM (inactive) | 15.7 µM (inactive) | 19.2 | 29.9 µM (inactive) | 20.9 µM (inactive) | – | 20.4 µM (inactive) | 35.2 µM (inactive) | 22.2 µM (inactive)
6 | Cc1ccc(S(=O)(=O)N(CC(O)COc2ccccc2)c2ccccc2Cl)cc1 (stereo unspecified) | 15.9 µM (inactive) | 17.1 µM (inactive) | 15.6 µM (inactive) | 12.4 µM (inactive) | 13.7 µM (inactive) | 16.8 µM (inactive) | 16.5 µM (inactive) | 16.8 µM (inactive) | 15.6 µM (inactive) | 14.7 µM (inactive) | 11.5 µM (inactive) | 12.2 µM (inactive) | – | 15.8 | 28.8 µM (inactive) | 15 µM (inactive) | 17.7 µM (inactive) | 20.5 µM (inactive) | 23.8 µM (inactive) | 22.3 µM (inactive)
7 | CN1CCN(c2ccc3[nH]c(-c4ccc5[nH]c(-c6ccc(O)cc6)nc5c4)nc3c2)CC1 | 687 µM (inactive) | 70.8 µM (inactive) | 19.8 µM (inactive) | 274 µM (inactive) | > 100 µM (inactive) | 482 µM (inactive) | 149 µM (inactive) | – | 8.28 µM (inactive) | 52.1 µM (inactive) | – | 564 µM (inactive) | 33.7 µM (inactive) | 224 | 329 µM (inactive) | 127 µM (inactive) | 241 µM (inactive) | 4.98 µM (inactive) | 664 µM (inactive) | 353 µM (inactive)
8 | C/C=C1\CC2C(=O)CCC2C2c3ccccc3OC12 (stereo unspecified) | > 100 µM (inactive) | > 100 µM (inactive) | > 100 µM (inactive) | > 100 µM (inactive) | > 100 µM (inactive) | > 100 µM (inactive) | > 100 µM (inactive) | > 100 µM (inactive) | > 100 µM (inactive) | > 100 µM (inactive) | > 100 µM (inactive) | > 100 µM (inactive) | > 100 µM (inactive) | > 100 | 0.0617 µM (active) | < 0.01 µM (active) | – | > 100 µM (inactive) | > 100 µM (inactive) | > 100 µM (inactive)
9 | O=C(O)C1C2OC(C(Br)C2Br)C1C(=O)O (stereo unspecified) | > 100 µM (inactive) | > 100 µM (inactive) | > 100 µM (inactive) | > 100 µM (inactive) | > 100 µM (inactive) | > 100 µM (inactive) | > 100 µM (inactive) | > 100 µM (inactive) | > 100 µM (inactive) | > 100 µM (inactive) | > 100 µM (inactive) | > 100 µM (inactive) | – | > 100 | > 100 µM (inactive) | > 100 µM (inactive) | > 100 µM (inactive) | > 100 µM (inactive) | > 100 µM (inactive) | > 100 µM (inactive)
10 | COc1ccc(CNc2nc3ccccc3nc2C(=O)O)cc1OC | > 100 µM (inactive) | > 100 µM (inactive) | > 100 µM (inactive) | > 100 µM (inactive) | – | 26.7 µM (inactive) | – | > 100 µM (inactive) | > 100 µM (inactive) | > 100 µM (inactive) | > 100 µM (inactive) | 36.5 µM (inactive) | 17.1 µM (inactive) | 83.8 | > 100 µM (inactive) | 91.6 µM (inactive) | 91.2 µM (inactive) | > 100 µM (inactive) | > 100 µM (inactive) | > 100 µM (inactive)
11 | COc1ccccc1NC(=S)Nc1cccc(C)n1 | > 100 µM (inactive) | 18.4 µM (inactive) | > 100 µM (inactive) | > 100 µM (inactive) | > 100 µM (inactive) | > 100 µM (inactive) | > 100 µM (inactive) | > 100 µM (inactive) | > 100 µM (inactive) | > 100 µM (inactive) | > 100 µM (inactive) | > 100 µM (inactive) | – | > 100 | > 100 µM (inactive) | > 100 µM (inactive) | > 100 µM (inactive) | > 100 µM (inactive) | > 100 µM (inactive) | 1.07 µM (active)
12 | COc1cccc2c1-c1ccccc1[C@H](Nc1ccccc1)[C@@]2(C)O | 6.21 µM (inactive) | 5.71 µM (inactive) | 11.3 µM (inactive) | 10.3 µM (inactive) | 6.12 µM (inactive) | 3.64 µM (inactive) | 3.86 µM (inactive) | 3.1 µM (inactive) | 1.56 µM (inactive) | 6.11 µM (inactive) | – | 4.93 µM (inactive) | 11.2 µM (inactive) | 4.3 | 5.3 µM (inactive) | 4.55 µM (inactive) | 8.95 µM (inactive) | 4.34 µM (inactive) | 4.27 µM (inactive) | 2.28 µM (inactive)
13 | O=C1Nc2ccccc2/C1=C1/Nc2ccccc2/C1=N\OCCNCC(O)C(O)C(O)C(O)CO (stereo unspecified) | 10.2 µM (inactive) | 11.9 µM (inactive) | 9.73 µM (inactive) | 31.5 µM (inactive) | 7.91 µM (inactive) | > 50 µM (inactive) | 20.9 µM (inactive) | 12.1 µM (inactive) | 9.86 µM (inactive) | 13.5 µM (inactive) | 19.1 µM (inactive) | > 50 µM (inactive) | 10.1 µM (inactive) | > 50 | 21.2 µM (inactive) | 15.2 µM (inactive) | – | 12.4 µM (inactive) | 9.66 µM (inactive) | 11 µM (inactive)
14 | C=CCSc1nn(CC=C)cc2ncnc1-2 | > 100 µM (inactive) | > 100 µM (inactive) | > 100 µM (inactive) | – | > 100 µM (inactive) | > 100 µM (inactive) | > 100 µM (inactive) | > 100 µM (inactive) | > 100 µM (inactive) | > 100 µM (inactive) | > 100 µM (inactive) | > 100 µM (inactive) | – | > 100 | > 100 µM (inactive) | > 100 µM (inactive) | > 100 µM (inactive) | > 100 µM (inactive) | – | > 100 µM (inactive)
15 | CCOCc1c(C)cc(C)c(C2C(C(=O)c3ccccc3)N3c4ccccc4C=CC3C2(C#N)C(=O)OCC)c1C (stereo unspecified) | 25.8 µM (inactive) | 53.8 µM (inactive) | 64.6 µM (inactive) | 37 µM (inactive) | – | 33.7 µM (inactive) | 36.5 µM (inactive) | 19.1 µM (inactive) | 38.7 µM (inactive) | 50.1 µM (inactive) | 81.7 µM (inactive) | 49.1 µM (inactive) | – | 44.2 | 37.8 µM (inactive) | 61.5 µM (inactive) | > 100 µM (inactive) | 24.8 µM (inactive) | – | –
